# Test results reported in ChEMBL document CHEMBL3507680, “University of Dundee, Gates Library screen for HepG2 cell viability”.
# Assay: Human HepG2 cell viability assay in 384 well format
# Type: toxicity, cell-based
# Parameters: dose 125 nL, time 70.5 hour; concentration not given beside the values
# Settings: HepG2 cells, read-out: Inhibition
row,SMILES,cytotoxicity at 70.5 h [%]
1,CC(=O)c1cc(CN2C[C@@H](CN3CCC(O)CC3)[C@@H](CO)C2)n(C)c1,0.0676
2,CN(C(=O)Cn1nc(-c2ccc(F)cc2)ccc1=O)C1CCS(=O)(=O)C1 (stereo unspecified),-0.171
3,CC(C)n1cnnc1CCNCc1cn(CCC(N)=O)c2ccccc12,-0.781
4,COc1cc(-c2nc3c([nH]2)CCCNC3=O)ccc1O,5.51
5,CCCS(=O)(=O)N1CC(=O)N(Cc2ccccc2OC)CC(O)C1 (stereo unspecified),18.5
6,O=C(CCCc1ccccn1)NCC(O)c1ccccc1Cl (stereo unspecified),3.77
7,Cc1nc(CN2CCCC(N(C)CC3CCCC3)C2)no1 (stereo unspecified),0.0887
8,O=C(Nc1nnc(C2CC2)s1)NC1CCN(Cc2ccccc2)C1 (stereo unspecified),-28
9,Cn1cccc1C(=O)N1CCCC(Cn2cc(CO)nn2)C1 (stereo unspecified),-2.41
10,CCn1cnnc1CNC(=O)NCC(C(C)C)N1CCC(C)CC1 (stereo unspecified),10.3
11,CC(C)OCCC(=O)N1CCN(CC(O)c2ccccc2)CC1 (stereo unspecified),-1.62
12,Cn1ccc(NC(=O)CN2CCC(Oc3cnccn3)CC2)n1,1.93
13,Cc1ncsc1CN1C[C@@H]2COC[C@]2(CNC(=O)c2ccccc2)C1,-7.33
14,COCCNC(=O)C1CN(Cc2ccsc2)Cc2ccnn2C1 (stereo unspecified),1.38
15,CN1CCN(C2CCN(Cc3noc(C4CC4)n3)CC2)C1=O,-1.19
16,Cc1cnccc1CN(C)C(=O)c1cccc(CCC(C)(C)O)c1,-1.91
17,NC(=O)CCn1cc(CNCCCc2ccccc2O)c2ccccc21,8.33
18,O=C(NCc1ccco1)[C@H]1C[C@@H]2CCN(c3ccncn3)C[C@@H]2O1,-5.88
19,CC(C)C[C@H](NC(=O)c1cc(-c2cccn2C)n[nH]1)C(N)=O,-0.791
20,CCN1C[C@H]2[C@@H](C1)N(S(=O)(=O)c1cccnc1)CC[C@H]2OC,45.6
21,CCC(C)N1CCC(Oc2ccc(C(=O)NCCN(C)C)cc2Cl)CC1 (stereo unspecified),-5.39
22,O=C(O)[C@@H]1CN(Cc2nc3ncccn3n2)C[C@H]1c1cccc(F)c1,26.1
23,Cc1ccc2[nH]c3c(c2c1)CN(C(=O)CN(C)CC1OCCO1)CC3,-1.1

row,SMILES,cytotoxicity at 70.5 h [%]
1,CN(C)CCO[C@H]1CN(Cc2ccco2)[C@@H]2COC[C@H]12,-3.7
2,O=C(c1ccccc1)N1CC[C@H]2C[C@H](c3nccs3)O[C@@H]2C1,-11.2
3,COc1ccc(S(=O)(=O)Nc2cccnc2-n2cncn2)c(C)c1,-8.45
4,O=C1NC2(CCc3ccccc31)CCN(Cc1cccnc1)C2 (stereo unspecified),3.7
5,N#Cc1ccc(N2CCC3(CC2)COCCN3Cc2cccnc2)cc1,-4.74
6,CC1CCN(c2ncc(C#N)c(N)n2)CC1,-3.5
7,CC(C)CN1CC[C@@H]2[C@H](CC1)N(C(=O)c1ccccc1)CCS2(=O)=O,-1.5
8,CC(CCS(C)(=O)=O)NC(=O)NCc1ccc2ccccc2c1 (stereo unspecified),5.09
9,Cc1ccc(-c2ncc(C(=O)N3CCCC(CCN)C3)c(O)n2)cc1 (stereo unspecified),-7.81
10,O=C(c1ccccn1)N1CCC(Oc2cccnc2)CC1,-8.37
11,O=C1N(Cc2ccc(F)cc2)CCCC12CCN(C1CCSCC1)C2 (stereo unspecified),-6
12,Cc1oc(C(=O)O)cc1S(=O)(=O)Nc1ccc(Cl)c(F)c1,-6.62
13,Cc1nn(C)c(C)c1OCC(=O)N1CCCC1,-6
14,C[C@@H]1CN(Cc2ccncc2)C[C@@]1(O)C1CC1,-11.5
15,CCN(CC)S(=O)(=O)c1ccc(CNC(=O)N2CCCCCC2)cc1,-7.35
16,O=C(NCc1ccccn1)[C@@H]1COC[C@H]2CN(c3ncccn3)C[C@H]21,-6.07
17,Cc1ccc(NC(=O)N2CCCC(O)(CO)CC2)cc1Cl (stereo unspecified),-4.85
18,COCCCn1ccc(NCc2ccc(NC(C)=O)cc2)n1,-6.7
19,COCCOC[C@]1(CNCc2ccc(F)cc2)C[C@@H](O)[C@@H](O)C1,11.8
20,CC(C)n1cnnc1C1CCCN(S(=O)(=O)CC2CCCC2)C1 (stereo unspecified),-106
21,CCCC(NC(=O)c1cnccn1)c1nnc2ccccn12 (stereo unspecified),-11
22,Cc1cccc(CN2CCC3(CC2)NC(=O)C[C@H]3c2cnn(C)c2)n1,-8.35
23,Cc1n[nH]c(C)c1CNC(=O)N(Cc1ccccc1)CC(C)(C)O,-3.61

row,SMILES,cytotoxicity at 70.5 h [%]
1,Cc1ccc(C(=O)N2Cc3ccccc3OC3(CCOCC3)C2)cn1,30.6
2,Cc1cccc(CN2CC[C@H]3[C@H]2CCN3C(=O)c2cnn(C)c2)n1,2.83
3,O=C(NCc1ccccn1)N1CC=C(c2ccccc2)CC1,-16.2
4,O=C(NCCSCc1ccc(Br)s1)C1CCCN(c2cnccn2)C1 (stereo unspecified),10.7
5,CCOC1CC2(CCN(C(=O)Cc3ccccn3)CC2)C1,18.1
6,CCNc1cc2c(nn1)CCN(C(=O)CC1CCCCC1)C2,-4.16
7,CN(C)C(=O)c1cc(-c2ccc(S(C)(=O)=O)cc2)c2cnn(C)c2n1,-7.12
8,CC(C)CC(C)N(C)C(=O)c1nc(S(C)(=O)=O)n2ccccc12 (stereo unspecified),2.74
9,Cc1ccccc1CS(=O)(=O)c1nnc(N2CCOCC2)s1,8.66
10,CN1CCC(N(CCc2ccccc2)C(=O)c2ccc(CO)cc2)CC1,-11.1
11,CCc1nncn1CCNC(=O)Nc1ccc(OC)c(C)c1,-7.19
12,COCCN(C)C[C@@H]1CN(C(=O)c2cccc(C#N)c2)C[C@@H]1CO,12.6
13,CCOc1ccc(Cl)c(C(=O)N2CCN(CCO)CC2)n1,-6.15
14,Cc1cc(C(=O)NCC(c2ccccc2Cl)N2CCOCC2)on1 (stereo unspecified),-1.66
15,CN1CCCCC12CCN(C(=O)c1cccn1C)CC2,-7.36
16,Cc1cnn(CC2CN(CCS(=O)(=O)c3ccccc3)CCO2)c1 (stereo unspecified),-9.7
17,O=C(CN1CCCC1Cn1cccn1)NC1CCOCC1 (stereo unspecified),-5.99
18,Cc1nnc(NCCc2nc3ccc(F)cc3n2C)c(C#N)c1C,1.4
19,CCn1nc2c(cc1=O)CN(c1ncnc3ccsc13)CC2,-7.93
20,CN(C)C1CCN(C(=O)c2cccc(S(=O)(=O)NCC3(C)COC3)c2)C1 (stereo unspecified),-9.11
21,Cc1cnc(-c2nc(C3CCCN(Cc4ccccc4C)C3)no2)cn1 (stereo unspecified),21.7
22,CN(C)C(=O)N1CCn2c(Cn3cccn3)cnc2C1,1.93
23,CN(C)CCCn1ccc(-c2cccc(-c3ccccn3)c2)n1,15.8

row,SMILES,cytotoxicity at 70.5 h [%]
1,O=C(c1cscn1)N1CCCC2(CCN2Cc2cccc(F)c2)C1 (stereo unspecified),-0.0272
2,c1ccc(N(CCn2cncn2)CC2CC2)cc1,-4.37
3,CN(C)C(=O)c1cc(-c2ccncc2)[nH]n1,-4.19
4,C[C@@H]1CN(C(=O)c2cn(CCN3CCCCC3)nn2)C[C@H](C)O1,-0.236
5,CN1CCN(c2cccc(Cl)c2CNCCS(C)(=O)=O)CC1,-8.06
6,CN(C)c1ncccc1CNC(=O)N1CCCC1c1cccs1 (stereo unspecified),1.79
7,c1cnn(Cc2nnc(C3CCN(C4CCOCC4)CC3)n2C2CC2)c1,-10.6
8,CCNC(=O)C1CCN(Cc2ccc(C(=O)Nc3cnns3)cc2)C1 (stereo unspecified),1.67
9,O=S(=O)(NCc1ccnc(-n2ccnc2)c1)c1cncc(Cl)c1,-0.226
10,CS(=O)(=O)NC[C@]12COC[C@H]1CN(C(=O)C1CC(F)(F)C1)C2,-2.39
11,Cc1noc(C)c1-c1cnc(CC2CCN(C(=O)c3cc[nH]n3)C2)cn1 (stereo unspecified),-12
12,COc1ncccc1NC(=O)N(Cc1ccc(C)o1)C1CC1,-9.49
13,COc1ccc(CNC(=O)NC2CCN(C)CC2)c(C(F)(F)F)c1,2.4
14,O=C1[C@H]2CN(Cc3ccccn3)C[C@H]2CN1c1ccsc1,-6.18
15,CN1C(=O)CO[C@H]2CCN(C(=O)Cc3ccc4c(c3)CCCC4)CC[C@@H]21,-4.91
16,Cc1cc(NC2CCc3ncnn3C2)n2nc(C(F)(F)F)nc2n1 (stereo unspecified),-95.5
17,CC(C)c1nc(C2CCCN(C(=O)c3nccn4ccnc34)C2)no1 (stereo unspecified),-7.38
18,COc1c(CNC2CCCc3ccccc32)c(C)nn1C (stereo unspecified),-8
19,Cc1nonc1C1CCCN1C(=O)c1cn2ccsc2n1 (stereo unspecified),-13.5
20,CCn1cc(CN2CCCN(C(=O)Cc3ccc(C)nc3)CC2)cn1,-9.56
21,CSCc1nc(C(C)(C)NC(=O)OC(C)(C)C)no1,-7.03
22,Cc1ccccc1CN1CCCN(C(=O)c2ccn(C)c(=O)c2)CC1,-1.43
23,CN1CCN(C(C)(C)CNC(=O)C2CCCN2S(C)(=O)=O)CC1 (stereo unspecified),-6.25

row,SMILES,cytotoxicity at 70.5 h [%]
1,CCOCCCNC(=O)C1(C)CCC(=O)N1c1cc(OC)ccc1OC (stereo unspecified),-2.77
2,COc1ccc(OC)c(Sc2ncccc2C(=O)N(C)CCC#N)c1,5.96
3,Cc1cccc(S(=O)(=O)NC(=O)CCc2cscn2)c1,4.67
4,CCn1nc(C)c2c1cnn2CCNS(=O)(=O)Cc1ccccc1,11.3
5,COc1cccn(CC(=O)N(C)CCCOc2c(C)cccc2C)c1=O,29.5
6,COCC(=O)N1CCc2nc(NC(C)C)nc(NC(C)C)c2CC1,-0.713
7,COCCCNC(=O)C(C)n1nc(-c2ccco2)cc(N)c1=O (stereo unspecified),-6.27
8,COc1ccccc1N(C)S(=O)(=O)c1cc(C(=O)O)cs1,-4.98
9,O=C(NC1CCS(=O)(=O)c2ccccc21)c1sccc1C1CC1 (stereo unspecified),-7.25
10,CC(C)c1nn(C)c(N(C)C)c1CNCc1cscn1,-5.21
11,Cc1cc(C)c2c(N3CCN(C(=O)N(C)C)CC3)ncnc2n1,-3.44
12,Cc1cccc(N2CC[C@@H]3[C@@H](CO[C@H]3CNS(C)(=O)=O)C2)n1,10.6
13,CC(C(=O)Nc1ccnn1C(C)C)N1CCN(Cc2ccon2)CC1 (stereo unspecified),1.23
14,O=c1[nH]cnc2c1CCN(S(=O)(=O)c1cccc(OC(F)(F)F)c1)C2,-5.76
15,O=C(Cn1nc2c(cc1=O)CCCC2)NC(Cc1ccccc1)C(=O)O (stereo unspecified),-10.7
16,Cc1nc(C)n(C2CCCN(C(=O)c3ccc(NC4CC4)nc3)C2)n1 (stereo unspecified),-6.49
17,CSc1nc2ncc3c(=O)n(CCN4CCCCC4)ccc3n2n1,-4.31
18,CC(NC(=O)CCn1cncn1)c1nnc2n1CCCCC2 (stereo unspecified),-13.5
19,CCN(Cc1ccncc1)c1cc(C2CCNCC2)nc(C)n1,19.5
